{"source": "patent US20130137573A1", "about": "“HERBICIDAL COMPOSITIONS COMPRISING, AND METHODS OF USE OF, HERBICIDALLY ACTIVE PYRANDIONES” (priority 2009, published 2013)", "assay_type_in_all_cases": "in vivo", "key": {"IR-64 rice [1]": {"test_system": "IR-64 rice", "assay": "Biological Example 1 (Test 125): damage (phytotoxicity) to flooded transplanted rice", "settings": "alone or in tested mixtures; A-4 mixtures especially at higher application rates of compound A-4", "quoted_text": "Rice seeds, variety IR-64 (an indica type of rice), were sown in seed trays. After 7 days the resulting plants were transplanted as 3 groups of 2 plants, into pots containing a standard sandy loam soil saturated with water replicating swampy conditions. […] Leptochloa chinensis (LEFCH) and Echinochloa crus-galli (ECHCG) were sown as 2 separate groups of approx 10-20 seeds into pots 13 days prior to application of the test substances, in the same glasshouse conditions as the rice. Therefore, each pot of weeds contained a group of LEFCH and a separate group of ECHCG. All pots of rice and all pots of weeds were flooded to 2-3 cm water depth the day prior to application of the test substances. Growth stages at time of application were as follows: Rice: from 2 leaves on the main stem up to tillering; ECHCG: from 2 leaves on the main stem up to tillering; LEFCH: 2-3 leaves.\nMost of the test substances were used as formulated products. […] Imazosulfuron (a comparator co-herbicide) was applied as a GR0.25 formulation (GR=granule).\nApplication of the test substances was made by pipetting the required amount of the test solution or the test formulation gently into the flood water of the appropriate pot.\nThe test plants were then grown on in the same glasshouse conditions, and watered twice daily keeping the flood water at a depth of 2-3 cm. […]"}, "Arborio rice": {"test_system": "Arborio rice", "assay": "Biological Example 4 (Test 110): wet seeded rice (WSR) method, Arborio rice damage", "settings": "EC050 + 0.2% Adsee, foliar spray, 14 days after application", "from_the_text": "(§1) Rice seeds varieties IR-64 and Arborio, Echinochloa crus-galli (ECHCG), and Leptochloa chinensis (LEFCH) were sown in seed trays containing a standard sandy loam soil saturated with water replicating swampy conditions. They were sown at intervals to achieve plants at the following growth stages at time of application: IR-64 and Arborio rice: from 3 leaves on the main stem to tillering; ECHCG: at two different leaf stages: 0-0.5 leaf and 2-3 leaf; LEFCH: 3 leaf. Glasshouse bay conditions were 30/20° C. day/night; 18/6 hours light/dark; 75% humidity.\n(§2) The test solutions were prepared by mixing the appropriate aliquots of the test substance (here, compound A-13 as EC050 Formulation Example 1) and adjuvant (0.2% Adsee as adjuvant) in de-ionised water to give the desired treatment concentration.\n(§3) Application was as a foliar spray, made using a tracksprayer. 3 days after application the trays were flooded to 2-3 cm water depth, and maintained at this level for the duration of the test.\n(§4) No. of repetitions: 1 test only.\n(§5) A visual assessment of the % herbicidal damage was made 14 days after application (0=no damage to plants, 100=total kill)."}, "Koshihikari rice": {"test_system": "Koshihikari rice", "assay": "Biological Example 4 (Test 110): transplanted (TPR) method, rice damage", "settings": "for Transplanted Rice Koshihikari % herbicidal damage: 14 days after application", "description": "(§6) Rice seeds, variety Koshihikari, were sown in seed trays, after 7 days they were transplanted as 3 groups of 2 plants, into pots containing a standard sandy loam soil saturated with water replicating swampy conditions. These were grown on for 9 days in a glasshouse bay 30/20° C. day/night; 18/6 hours light/dark; 75% humidity). Approx 10-20 seeds of Echinochloa crus-galli were sown into pots 13 days prior to application, in the same conditions as the rice. All pots were flooded to 2-3 cm water depth the day prior to application. Growth stages at time of application were: Rice: 2-3 leaves, ECHCG: 4 leaves. The test solutions were prepared by mixing the appropriate aliquots of the test substance (here, compound A-13 as EC050 Formulation Example 1) in de-ionised water to give the desired treatment concentration.\n(§7) Application was made by pipetting the required amount of the test solution gently into the flood water of the appropriate pot.\n(§8) The test plants were grown on in the same glasshouse conditions, and watered twice daily keeping the flood water at a depth of 2-3 cm.\nas §4, §5"}, "[2]": {"test_system": "Leptochloa chinensis (LEFCH)", "assay": "Biological Example 4 (Test 110): wet seeded rice (WSR) method, LEFCH damage", "settings": "EC050 + 0.2% Adsee, foliar spray, LEFCH 3 leaf, 14 days after application", "from_the_text": "as §1, §2, §3, §4, §5"}, "[3]": {"test_system": "Echinochloa crus-galli (ECHCG)", "assay": "Biological Example 2 (Test 109): visual herbicidal damage to flooded ECHCG", "settings": "EC050, into flood water, 14 days after application", "description": "as §6, with “IR-64,” for “Koshihikari,”, “(30/20°” for “30/20°”, “2-3” for “4”, “leaves.” for “leaves. The test solutions were prepared by mixing the appropriate aliquots of the test substance (here, compound A-13 as EC050 Formulation Example 1) in de-ionised water to give the desired treatment concentration.”\n(§9) The test solutions were prepared by mixing the appropriate aliquots of the test substance (here, compound A-13 as the EC050 Formulation Example 1 disclosed herein) in de-ionised water to give the desired treatment concentration.\nas §7, §8, §5"}, "IR-64 rice [4]": {"test_system": "IR-64 rice", "assay": "Biological Example 2 (Test 109): damage to flooded transplanted rice", "settings": "for IR-64 rice % herbicidal damage: EC050, into flood water, 14 days after application", "description": "as §6, with “IR-64,” for “Koshihikari,”, “(30/20°” for “30/20°”, “2-3” for “4”, “leaves.” for “leaves. The test solutions were prepared by mixing the appropriate aliquots of the test substance (here, compound A-13 as EC050 Formulation Example 1) in de-ionised water to give the desired treatment concentration.”\nas §9, §7, §8, §5"}, "[5]": {"test_system": "Echinochloa colona (ECHCO)", "assay": "Biological Example 4 (Test 110): dry seeded rice (DSR) method, ECHCO damage", "settings": "for DSR ECHCO 0.5lf % herbicidal damage / DSR ECHCO 3lf % herbicidal damage: EC050 + 0.2% Adsee, foliar spray, 14 days after application; for DSR ECHCO 0.5lf % herbicidal damage: 0.5 leaf stage; for DSR ECHCO 3lf % herbicidal damage: 3 leaf stage", "description": "Echinochloa colona (ECHCO) seeds were sown in seed trays containing a standard sandy loam soil. They were sown at intervals to achieve plants at 0-0.5 leaf and 2-3 leaves at the time of application. Irrigation occurred to maintain the soil at moist but not saturated conditions. Glasshouse bay conditions were 30/20° C. day/night; 18/6 hours light/dark; 75% humidity.\nas §2\nApplication was as a foliar spray, made using a tracksprayer.\nThe test plants were grown on in the same glasshouse conditions, and watered to maintain moist conditions.\nas §4, §5"}, "[6]": {"test_system": "Echinochloa crus-galli (ECHCG)", "assay": "Biological Example 4 (Test 110): transplanted (TPR) method, ECHCG damage", "settings": "EC050 into flood water, ECHCG 4 leaves, 14 days after application", "description": "as §6, §7, §8, §4, §5"}, "[7]": {"test_system": "Echinochloa crus-galli (ECHCG)", "assay": "Biological Example 3 (Test 120): visual herbicidal damage to flooded ECHCG", "settings": "EC050, 14DAA", "description": "as §6, with “clay” for “sandy loam”, “(30/20°” for “30/20°”, “leaves;” for “leaves,”, “2-3” for “4”, “leaves.” for “leaves. The test solutions were prepared by mixing the appropriate aliquots of the test substance (here, compound A-13 as EC050 Formulation Example 1) in de-ionised water to give the desired treatment concentration.”\nas §9, §7, §8, §5"}}, "data": [{"smiles": "CC1(C)OC(C)(C)C(O)=C(c2cc(-c3ccc(Cl)cc3F)ccc2C2CC2)C1=O", "note": "[compound A-13, 4-(4′-Chloro-4-cyclopropyl-2′-fluorobiphenyl-3-yl)-2,2,6,6-tetramethylpyran-3,5-dione]", "values": [{"measurement": "phytotoxicity (damage) to IR-64 transplanted flooded rice, in words", "setting": "IR-64 rice [1]", "result": "very low phytotoxicity"}, {"measurement": "WSR Rice Arborio % herbicidal damage", "setting": "Arborio rice; 8 g/ha", "result": 0, "unit": "%"}, {"measurement": "WSR Rice Arborio % herbicidal damage", "setting": "Arborio rice; 60 g/ha", "result": 0, "unit": "%"}, {"measurement": "WSR Rice Arborio % herbicidal damage", "setting": "Arborio rice; 125 g/ha", "result": 0, "unit": "%"}, {"measurement": "WSR Rice Arborio % herbicidal damage", "setting": "Arborio rice; 500 g/ha", "result": 60, "unit": "%"}, {"measurement": "Transplanted Rice Koshihikari % herbicidal damage", "setting": "Koshihikari rice; 60 g/ha, EC050, into flood water", "result": 15, "unit": "%"}, {"measurement": "Transplanted Rice Koshihikari % herbicidal damage", "setting": "Koshihikari rice; 125 g/ha, EC050 into flood water", "result": 20, "unit": "%"}, {"measurement": "Transplanted Rice Koshihikari % herbicidal damage", "setting": "Koshihikari rice; 500 g/ha, EC050 into flood water", "result": 60, "unit": "%"}, {"measurement": "selectivity margin between rice and ECHCG", "setting": "Koshihikari rice; Biological Example 4, transplanted rice, 125 g/ha", "result": "certain selectivity margin"}, {"measurement": "WSR LEFCH % herbicidal damage", "setting": "[2]; 8 g/ha", "result": 10, "unit": "%"}, {"measurement": "WSR LEFCH % herbicidal damage", "setting": "[2]; 60 g/ha", "result": 10, "unit": "%"}, {"measurement": "WSR LEFCH % herbicidal damage", "setting": "[2]; 125 g/ha", "result": 65, "unit": "%"}, {"measurement": "WSR LEFCH % herbicidal damage", "setting": "[2]; 500 g/ha", "result": 75, "unit": "%"}, {"measurement": "ECHCG % herbicidal damage", "setting": "[3]; 60 g/ha", "result": 68, "unit": "%"}, {"measurement": "ECHCG % herbicidal damage", "setting": "[3]; 120 g/ha", "result": 90, "unit": "%"}, {"measurement": "ECHCG % herbicidal damage", "setting": "[3]; 240 g/ha", "result": 98, "unit": "%"}, {"measurement": "IR-64 rice % herbicidal damage", "setting": "IR-64 rice [4]; 120 g/ha", "result": 5, "unit": "%"}, {"measurement": "IR-64 rice % herbicidal damage", "setting": "IR-64 rice [4]; 240 g/ha", "result": 18, "unit": "%"}, {"measurement": "IR-64 rice % herbicidal damage", "setting": "IR-64 rice [4]; 360 g/ha", "result": 5, "unit": "%"}, {"measurement": "selectivity margin in rice (IR-64 rice vs ECHCG)", "setting": "IR-64 rice [4]; Biological Example 2, 120 g/ha", "result": "good selectivity margin"}, {"measurement": "DSR ECHCO 0.5lf % herbicidal damage", "setting": "[5]; 8 g/ha", "result": 0, "unit": "%"}, {"measurement": "DSR ECHCO 3lf % herbicidal damage", "setting": "[5]; 8 g/ha", "result": 85, "unit": "%"}, {"measurement": "DSR weed control, in words", "setting": "[5]; 60 and 125 g/ha, 2 growth stages, 0.5 leaf and 3 leaf, dry seeded rice method", "result": "controlled"}, {"measurement": "DSR ECHCO 0.5lf % herbicidal damage", "setting": "[5]; 60 g/ha", "result": 90, "unit": "%"}, {"measurement": "DSR ECHCO 3lf % herbicidal damage", "setting": "[5]; 60 g/ha", "result": 100, "unit": "%"}, {"measurement": "DSR ECHCO 0.5lf % herbicidal damage", "setting": "[5]; 125 g/ha", "result": 90, "unit": "%"}, {"measurement": "DSR ECHCO 3lf % herbicidal damage", "setting": "[5]; 125 g/ha", "result": 100, "unit": "%"}, {"measurement": "DSR ECHCO 0.5lf % herbicidal damage", "setting": "[5]; 500 g/ha", "result": 90, "unit": "%"}, {"measurement": "DSR ECHCO 3lf % herbicidal damage", "setting": "[5]; 500 g/ha", "result": 100, "unit": "%"}, {"measurement": "Transplanted ECHCG % herbicidal damage", "setting": "[6]; 30 g/ha", "result": 0, "unit": "%"}, {"measurement": "Transplanted ECHCG % herbicidal damage", "setting": "[6]; 60 g/ha", "result": 20, "unit": "%"}, {"measurement": "Transplanted ECHCG % herbicidal damage", "setting": "[6]; 125 g/ha", "result": 75, "unit": "%"}, {"measurement": "Transplanted ECHCG % herbicidal damage", "setting": "[6]; 500 g/ha", "result": 99, "unit": "%"}, {"measurement": "ECHCG % herbicidal damage, Mean of 2 repetitions", "setting": "[7]; 30 g/ha", "result": 58, "unit": "%"}, {"measurement": "ECHCG % herbicidal damage, Repetition A", "setting": "[7]; 30 g/ha", "result": 55, "unit": "%"}, {"measurement": "ECHCG % herbicidal damage, Repetition B", "setting": "[7]; 30 g/ha", "result": 60, "unit": "%"}, {"measurement": "ECHCG % herbicidal damage, Mean of 2 repetitions", "setting": "[7]; 60 g/ha", "result": 63, "unit": "%"}, {"measurement": "ECHCG % herbicidal damage, Repetition A", "setting": "[7]; 60 g/ha", "result": 65, "unit": "%"}, {"measurement": "ECHCG % herbicidal damage, Repetition B", "setting": "[7]; 60 g/ha", "result": 60, "unit": "%"}, {"measurement": "ECHCG % herbicidal damage, Mean of 2 repetitions", "setting": "[7]; 125 g/ha", "result": 88, "unit": "%"}, {"measurement": "ECHCG % herbicidal damage, Repetition A", "setting": "[7]; 125 g/ha", "result": 85, "unit": "%"}, {"measurement": "ECHCG % herbicidal damage, Repetition B", "setting": "[7]; 125 g/ha", "result": 90, "unit": "%"}, {"measurement": "ECHCG control (span of the 2 repetitions)", "setting": "[7]; 125 g/ha", "result": "85-90%"}]}]}
